Test [1] deals with Macrophage-stimulating protein receptor (Homo sapiens, UniProt Q04912). Kind of test: Selectivity interaction (KinomeScan (DiscoverX)) EUB0001619a MST1R. The note with it: at 1 µM.
Test [2] addresses 5'-AMP-activated protein kinase catalytic subunit alpha-1 (Homo sapiens, UniProt Q13131). Kind of test: Selectivity interaction (KinomeScan (DiscoverX)) EUB0000607a PRKAA1. Particulars: at 10 µM.
The target in test [3] is T1, Dual specificity mitogen-activated protein kinase kinase 6 (Homo sapiens) (UniProt P52564).
T1 sequence (whole entry): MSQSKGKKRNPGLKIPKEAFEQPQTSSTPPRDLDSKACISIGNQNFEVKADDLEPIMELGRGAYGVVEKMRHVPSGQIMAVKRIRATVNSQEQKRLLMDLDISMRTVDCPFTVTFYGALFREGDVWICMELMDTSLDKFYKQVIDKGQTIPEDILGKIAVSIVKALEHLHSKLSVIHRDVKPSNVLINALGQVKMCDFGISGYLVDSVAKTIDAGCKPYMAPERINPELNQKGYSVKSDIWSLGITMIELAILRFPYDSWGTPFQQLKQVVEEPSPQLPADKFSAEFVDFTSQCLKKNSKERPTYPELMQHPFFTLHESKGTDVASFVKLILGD
The test can be described thus: Selectivity interaction (SelectScreen profiling (Invitrogen)) EUB0000607a MAP2K6. Particulars: at 2 µM.

For test [4], the target named is SRSF protein kinase 2 (Homo sapiens) (UniProt P78362). The note with it: at 10 µM.
In test [5] the test system is Hepatocyte growth factor receptor (Homo sapiens), P08581 [M1250T]. The note with it: at 10 µM.
Chain of Hepatocyte growth factor receptor (Homo sapiens), P08581 [M1250T] (P08581 whole entry M1250T): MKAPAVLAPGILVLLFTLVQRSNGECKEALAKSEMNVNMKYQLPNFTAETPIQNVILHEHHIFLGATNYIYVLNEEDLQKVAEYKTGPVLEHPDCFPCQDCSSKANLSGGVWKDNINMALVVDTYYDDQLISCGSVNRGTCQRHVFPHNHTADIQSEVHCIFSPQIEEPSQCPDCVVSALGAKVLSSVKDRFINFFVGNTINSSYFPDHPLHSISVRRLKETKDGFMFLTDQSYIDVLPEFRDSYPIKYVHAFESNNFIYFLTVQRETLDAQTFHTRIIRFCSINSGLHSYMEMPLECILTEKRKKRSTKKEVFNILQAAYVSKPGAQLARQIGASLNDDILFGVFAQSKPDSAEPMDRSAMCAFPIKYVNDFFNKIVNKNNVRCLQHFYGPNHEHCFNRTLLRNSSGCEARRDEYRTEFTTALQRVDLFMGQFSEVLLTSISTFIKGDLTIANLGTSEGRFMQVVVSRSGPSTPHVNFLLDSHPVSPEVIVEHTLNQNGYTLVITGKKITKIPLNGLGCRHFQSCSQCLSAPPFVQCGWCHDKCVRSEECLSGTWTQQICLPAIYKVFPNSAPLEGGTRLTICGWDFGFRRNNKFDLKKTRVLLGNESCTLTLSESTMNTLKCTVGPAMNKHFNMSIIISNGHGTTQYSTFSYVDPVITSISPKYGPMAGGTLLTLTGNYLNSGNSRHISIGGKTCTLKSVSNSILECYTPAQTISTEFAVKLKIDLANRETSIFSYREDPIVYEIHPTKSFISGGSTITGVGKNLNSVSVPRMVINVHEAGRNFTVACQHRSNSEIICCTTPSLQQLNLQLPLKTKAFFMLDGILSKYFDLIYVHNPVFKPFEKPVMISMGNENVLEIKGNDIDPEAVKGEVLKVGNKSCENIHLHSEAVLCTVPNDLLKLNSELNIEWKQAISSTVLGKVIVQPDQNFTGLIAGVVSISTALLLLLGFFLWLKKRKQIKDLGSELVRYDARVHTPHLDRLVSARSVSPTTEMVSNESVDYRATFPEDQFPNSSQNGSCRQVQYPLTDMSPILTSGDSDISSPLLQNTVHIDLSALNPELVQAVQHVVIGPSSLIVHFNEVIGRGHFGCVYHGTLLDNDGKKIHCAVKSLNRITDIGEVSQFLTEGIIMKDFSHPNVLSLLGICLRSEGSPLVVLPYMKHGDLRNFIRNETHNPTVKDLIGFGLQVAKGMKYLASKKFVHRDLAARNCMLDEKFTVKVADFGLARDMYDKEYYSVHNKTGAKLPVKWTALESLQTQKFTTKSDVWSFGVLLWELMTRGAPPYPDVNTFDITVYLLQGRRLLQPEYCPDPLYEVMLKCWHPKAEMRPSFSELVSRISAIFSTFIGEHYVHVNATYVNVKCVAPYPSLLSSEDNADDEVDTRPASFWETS
For test [6], the target named is T2, Inhibitor of nuclear factor kappa-B kinase subunit beta (Homo sapiens) (UniProt O14920).
T2 sequence (whole entry): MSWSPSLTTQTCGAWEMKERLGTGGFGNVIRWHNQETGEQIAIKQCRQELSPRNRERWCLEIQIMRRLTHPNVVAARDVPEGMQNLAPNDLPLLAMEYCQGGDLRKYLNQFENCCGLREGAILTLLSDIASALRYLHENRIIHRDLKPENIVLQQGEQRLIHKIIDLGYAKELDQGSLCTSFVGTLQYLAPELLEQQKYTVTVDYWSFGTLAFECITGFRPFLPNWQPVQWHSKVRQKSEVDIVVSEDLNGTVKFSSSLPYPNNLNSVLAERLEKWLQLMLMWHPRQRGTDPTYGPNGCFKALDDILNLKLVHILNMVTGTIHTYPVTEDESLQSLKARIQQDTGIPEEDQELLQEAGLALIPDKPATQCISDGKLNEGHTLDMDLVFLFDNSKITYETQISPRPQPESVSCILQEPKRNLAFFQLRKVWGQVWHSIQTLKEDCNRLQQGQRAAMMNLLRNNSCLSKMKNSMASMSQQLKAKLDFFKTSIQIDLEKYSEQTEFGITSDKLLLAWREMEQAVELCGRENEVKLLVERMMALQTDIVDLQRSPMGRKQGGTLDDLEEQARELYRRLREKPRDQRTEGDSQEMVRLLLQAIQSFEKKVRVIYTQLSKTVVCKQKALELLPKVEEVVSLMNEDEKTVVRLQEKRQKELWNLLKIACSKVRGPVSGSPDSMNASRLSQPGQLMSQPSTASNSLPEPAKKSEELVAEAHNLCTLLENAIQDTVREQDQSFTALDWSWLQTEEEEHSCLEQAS
Kind of test: Selectivity interaction (Kinase panel (Invitrogen)) EUB0000639a IKBKB. Particulars: at 200 nM.

Test [7] concerns the target Cyclin-dependent kinase 16 (Homo sapiens) (UniProt Q00536). Kind of test: Selectivity interaction (ActivX KiNativ screen (kinase selectivity in THP-1 cell lysates)) EUB0000639a CDK16. The format is subcellular. The note with it: lysate, at 0.2 µM.
Test [8] concerns the target T3, Kinase suppressor of Ras 2 (Homo sapiens) (UniProt Q6VAB6).
T3 sequence (whole entry): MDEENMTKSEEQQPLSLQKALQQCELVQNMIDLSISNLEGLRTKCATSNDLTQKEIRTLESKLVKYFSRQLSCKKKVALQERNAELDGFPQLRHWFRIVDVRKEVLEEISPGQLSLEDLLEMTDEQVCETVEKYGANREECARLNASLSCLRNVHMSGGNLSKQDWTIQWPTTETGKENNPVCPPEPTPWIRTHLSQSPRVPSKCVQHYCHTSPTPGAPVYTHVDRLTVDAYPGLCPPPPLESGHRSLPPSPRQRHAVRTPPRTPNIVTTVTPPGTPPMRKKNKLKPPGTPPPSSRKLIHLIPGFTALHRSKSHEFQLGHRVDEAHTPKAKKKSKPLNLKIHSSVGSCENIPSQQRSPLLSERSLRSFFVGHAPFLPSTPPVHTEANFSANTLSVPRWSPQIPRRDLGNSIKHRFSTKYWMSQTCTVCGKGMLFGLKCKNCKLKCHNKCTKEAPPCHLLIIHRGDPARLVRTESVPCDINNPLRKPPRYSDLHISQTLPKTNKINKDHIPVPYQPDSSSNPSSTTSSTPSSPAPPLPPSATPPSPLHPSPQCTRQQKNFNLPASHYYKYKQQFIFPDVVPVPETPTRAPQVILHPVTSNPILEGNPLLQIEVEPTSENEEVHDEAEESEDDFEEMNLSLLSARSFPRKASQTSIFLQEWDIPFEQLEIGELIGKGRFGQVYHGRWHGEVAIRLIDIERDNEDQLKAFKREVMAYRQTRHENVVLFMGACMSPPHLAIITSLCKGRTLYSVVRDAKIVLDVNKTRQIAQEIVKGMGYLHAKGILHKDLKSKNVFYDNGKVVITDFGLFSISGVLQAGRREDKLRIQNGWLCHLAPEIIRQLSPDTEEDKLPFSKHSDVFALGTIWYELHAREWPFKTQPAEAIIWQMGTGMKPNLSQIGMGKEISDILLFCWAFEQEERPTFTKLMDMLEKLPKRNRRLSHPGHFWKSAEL
Kind of test: Selectivity interaction (ActivX KiNativ screen (kinase selectivity in THP-1 cell lysates)) EUB0000639a KSR2. The format is subcellular. The note with it: lysate.

In test [9] the target is Tyrosine-protein kinase ABL2 (Homo sapiens, UniProt P42684). The test can be described thus: Selectivity interaction (KinomeScan (DiscoverX)) EUB0001049a ABL2. The note with it: at 1 µM.
For test [10], the target named is Dual specificity mitogen-activated protein kinase kinase 1 (Homo sapiens, UniProt Q02750). Kind of test: Selectivity interaction (Upstate Kinase Profiler service (Millipore)) EUB0000056c MAP2K1. The note with it: at 1 µM.
Chain of Dual specificity mitogen-activated protein kinase kinase 1 (Q02750 whole entry): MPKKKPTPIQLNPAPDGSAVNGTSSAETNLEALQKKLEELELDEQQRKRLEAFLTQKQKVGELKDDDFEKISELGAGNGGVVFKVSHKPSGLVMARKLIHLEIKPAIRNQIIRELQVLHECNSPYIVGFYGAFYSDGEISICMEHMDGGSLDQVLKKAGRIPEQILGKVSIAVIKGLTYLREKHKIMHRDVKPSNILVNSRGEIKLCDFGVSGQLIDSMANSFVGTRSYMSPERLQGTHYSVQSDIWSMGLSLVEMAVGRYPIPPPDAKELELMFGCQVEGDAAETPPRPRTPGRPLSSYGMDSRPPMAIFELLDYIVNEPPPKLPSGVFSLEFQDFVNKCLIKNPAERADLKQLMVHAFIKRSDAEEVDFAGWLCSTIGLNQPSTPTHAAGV
In test [11] the target is CDK4/Cyclin D3 (Homo sapiens) (UniProt P11802+P30281). Kind of test: (§1) Selectivity interaction (KinomeScan (DiscoverX)) EUB0000229b CDK4. The format is protein-complex assay. The note with it: at 10 µM.
The target in test [12] is Cyclin-dependent kinase 4/cyclin D1 (Homo sapiens) (UniProt P11802+P24385). Described as §1. It counts as protein-complex assay. Particulars: at 10 µM.
In test [13] the target is Calcium/calmodulin-dependent protein kinase type II subunit alpha (Homo sapiens, UniProt Q9UQM7). Kind of test: Selectivity interaction (Kinase panel (KiNativ target engagement assay in Jurkat cells)) EUB0001635a CAMK2A. It counts as cell-based. The note with it: Selectivity number of off-targets 0.0, Selectivity number of targets 233.0, Source Knowledge https://www.sciencedirect.com/science/article/pii/S2451945619300674?via%3Dihub, at 1 µM.
Chain of Calcium/calmodulin-dependent protein kinase type II subunit alpha (Q9UQM7 whole entry): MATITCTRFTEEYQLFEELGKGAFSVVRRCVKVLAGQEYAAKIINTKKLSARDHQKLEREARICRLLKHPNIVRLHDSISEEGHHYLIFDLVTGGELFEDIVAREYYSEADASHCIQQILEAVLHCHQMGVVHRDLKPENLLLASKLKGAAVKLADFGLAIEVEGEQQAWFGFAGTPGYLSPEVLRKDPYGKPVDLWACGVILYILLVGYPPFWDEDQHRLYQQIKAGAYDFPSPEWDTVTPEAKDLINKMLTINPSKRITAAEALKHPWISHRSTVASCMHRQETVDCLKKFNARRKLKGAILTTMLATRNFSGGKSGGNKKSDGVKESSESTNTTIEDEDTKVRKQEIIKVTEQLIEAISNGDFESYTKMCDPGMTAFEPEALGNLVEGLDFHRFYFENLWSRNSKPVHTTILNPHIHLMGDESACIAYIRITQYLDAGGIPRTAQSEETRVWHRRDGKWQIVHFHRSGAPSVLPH

Chain of Cyclin-dependent kinase 16 (Homo sapiens) (Q00536 whole entry): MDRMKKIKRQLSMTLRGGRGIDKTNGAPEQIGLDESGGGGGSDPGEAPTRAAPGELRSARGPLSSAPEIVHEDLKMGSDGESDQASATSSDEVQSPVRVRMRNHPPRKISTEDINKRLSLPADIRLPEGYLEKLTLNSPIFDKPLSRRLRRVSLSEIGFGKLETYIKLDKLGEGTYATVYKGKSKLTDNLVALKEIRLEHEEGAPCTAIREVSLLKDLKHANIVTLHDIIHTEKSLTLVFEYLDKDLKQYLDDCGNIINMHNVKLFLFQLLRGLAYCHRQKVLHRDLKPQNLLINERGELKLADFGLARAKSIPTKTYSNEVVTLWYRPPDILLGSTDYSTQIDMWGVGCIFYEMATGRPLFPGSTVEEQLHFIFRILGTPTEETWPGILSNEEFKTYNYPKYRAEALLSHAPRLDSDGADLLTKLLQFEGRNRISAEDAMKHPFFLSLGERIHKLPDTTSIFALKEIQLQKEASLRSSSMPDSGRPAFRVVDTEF
Chain of Macrophage-stimulating protein receptor (Q04912 25-304 limits assumed): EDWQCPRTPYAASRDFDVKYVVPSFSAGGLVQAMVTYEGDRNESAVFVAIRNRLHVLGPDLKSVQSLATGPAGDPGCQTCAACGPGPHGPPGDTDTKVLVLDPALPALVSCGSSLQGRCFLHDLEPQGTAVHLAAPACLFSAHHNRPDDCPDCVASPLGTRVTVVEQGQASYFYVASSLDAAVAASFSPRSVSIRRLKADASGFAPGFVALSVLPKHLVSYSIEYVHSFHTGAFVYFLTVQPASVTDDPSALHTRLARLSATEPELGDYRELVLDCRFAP
Chain of Macrophage-stimulating protein receptor (Q04912 310-1400 limits assumed): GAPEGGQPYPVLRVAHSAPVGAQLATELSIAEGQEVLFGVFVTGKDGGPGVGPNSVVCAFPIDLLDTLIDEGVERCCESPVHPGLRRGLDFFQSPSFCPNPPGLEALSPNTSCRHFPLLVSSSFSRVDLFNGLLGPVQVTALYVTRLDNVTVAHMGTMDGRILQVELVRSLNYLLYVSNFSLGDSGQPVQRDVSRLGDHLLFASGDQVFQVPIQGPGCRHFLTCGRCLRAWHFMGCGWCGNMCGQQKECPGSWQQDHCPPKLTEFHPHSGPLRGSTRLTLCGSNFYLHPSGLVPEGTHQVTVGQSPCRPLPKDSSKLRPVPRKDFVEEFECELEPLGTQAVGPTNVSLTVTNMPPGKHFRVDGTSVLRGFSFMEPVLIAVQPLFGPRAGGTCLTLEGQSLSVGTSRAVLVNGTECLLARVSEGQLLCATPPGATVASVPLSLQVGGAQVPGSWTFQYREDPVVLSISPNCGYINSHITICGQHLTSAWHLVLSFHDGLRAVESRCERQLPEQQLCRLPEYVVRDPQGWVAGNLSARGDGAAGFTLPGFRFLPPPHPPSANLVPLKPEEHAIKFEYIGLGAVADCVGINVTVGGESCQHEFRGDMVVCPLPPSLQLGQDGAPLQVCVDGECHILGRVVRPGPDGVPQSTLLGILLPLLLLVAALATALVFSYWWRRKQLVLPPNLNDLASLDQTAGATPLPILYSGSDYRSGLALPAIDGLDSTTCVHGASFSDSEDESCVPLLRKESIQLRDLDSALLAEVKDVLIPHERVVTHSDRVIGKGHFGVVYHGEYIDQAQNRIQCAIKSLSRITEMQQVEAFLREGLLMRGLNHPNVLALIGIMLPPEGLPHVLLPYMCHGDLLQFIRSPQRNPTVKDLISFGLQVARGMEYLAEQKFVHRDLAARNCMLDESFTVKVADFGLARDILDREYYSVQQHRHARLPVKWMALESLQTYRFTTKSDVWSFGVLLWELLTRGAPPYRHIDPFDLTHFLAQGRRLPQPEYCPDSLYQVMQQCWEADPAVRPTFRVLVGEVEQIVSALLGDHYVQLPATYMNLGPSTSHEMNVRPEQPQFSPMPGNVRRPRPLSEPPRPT
Chain of 5'-AMP-activated protein kinase catalytic subunit alpha-1 (Q13131 whole entry, looked up): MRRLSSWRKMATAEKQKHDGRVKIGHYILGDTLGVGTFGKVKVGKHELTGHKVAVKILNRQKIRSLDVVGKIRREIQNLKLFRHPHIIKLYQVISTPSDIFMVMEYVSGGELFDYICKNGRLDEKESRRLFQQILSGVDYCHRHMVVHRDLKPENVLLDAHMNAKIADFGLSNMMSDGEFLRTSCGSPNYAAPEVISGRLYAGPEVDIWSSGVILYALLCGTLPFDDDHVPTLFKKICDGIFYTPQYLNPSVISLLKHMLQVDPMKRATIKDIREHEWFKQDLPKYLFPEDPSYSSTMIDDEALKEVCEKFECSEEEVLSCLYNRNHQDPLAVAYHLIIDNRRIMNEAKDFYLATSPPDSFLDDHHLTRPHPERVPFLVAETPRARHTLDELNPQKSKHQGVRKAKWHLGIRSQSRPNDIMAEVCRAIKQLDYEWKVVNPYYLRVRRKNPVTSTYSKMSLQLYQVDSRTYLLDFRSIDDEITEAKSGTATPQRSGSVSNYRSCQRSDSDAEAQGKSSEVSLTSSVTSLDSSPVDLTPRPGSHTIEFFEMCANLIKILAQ

For `N#Cc1cccc(-c2c[nH]c3ncnc(N4CCOCC4)c23)c1`, in test [1], the % of control was determined as 95%.
With `CNC(=O)Nc1ccc(-c2nc(N3CC4CCC(C3)O4)c3cnn(C4CCC5(CC4)OCCO5)c3n2)cc1`, the % of control in [2] is 94%. Further, the % of inhibition in test [3] was 8%.
On to `Cc1cc([C@@H](C)Nc2ccccc2C(=O)O)c2nc(N3CCOCC3)cc(=O)n2c1` [AZD-6482], for which the % of control in test [4] worked out at 85%; in [5] it was 87%.
Turning to `CC[C@@H]1[C@H](F)C(=O)N[C@@H]1COc1nccc2cc(C(N)=O)c(OC)cc12` [ZIMLOVISERTIB], the % of inhibition was 4.3% in test [6]; -0.8% in test [7]; 2.4% in [8] (at 0.01 µM); -8.6% in test [8] (at 0.2 µM); -32.8% in test [8] (at 1 µM); -57.9% in test [8] (at 5 µM).
In test [9], `COc1cc(Nc2nc(C)cc(-c3cnn4nc(OC)ccc34)n2)cc(C(F)(F)F)c1` registered a % of control of 76%.
On to `Cc1ccc(-c2ccc3c(ccc4sc5c(c43)NC[C@@H](C)NC5=O)n2)cn1`, for which the % of inhibition in [10] was -8%.
For the molecule `COc1cc(N(C)c2ccnc3ccc(C(F)(F)F)cc23)cc(OC)c1OC`, the % binding in test [11] turned out to be 94%; in test [12] it was 99%.
Take `C=CC(=O)Nc1ccc(C(=O)Nc2[nH]nc3c2CN(C(=O)N[C@H](CN(C)C)c2ccccc2)C3(C)C)cc1`: the % of engagement in test [13] turned out to be 24.5%.

Values taken from ChEMBL document CHEMBL5465560, “Selectivity Literature for EUbOPEN Chemogenomic Library” (2024).
